The values that follow come from patent publication US20120053235A1, “Dihydromyricetin as an IKK-beta inhibitor used for treatment of arthritis, cancer and autoimmune conditions, and other diseases or disorders” (HONG KONG BAPTIST UNIVERSITY, priority 2010, published 2012).

The target of data set [1] is T1, His-tagged recombinant human IKK-β (Homo sapiens, UniProt O14920).
T1 construct: His; purchased Calbiochem
T1 sequence (O14920 1-756): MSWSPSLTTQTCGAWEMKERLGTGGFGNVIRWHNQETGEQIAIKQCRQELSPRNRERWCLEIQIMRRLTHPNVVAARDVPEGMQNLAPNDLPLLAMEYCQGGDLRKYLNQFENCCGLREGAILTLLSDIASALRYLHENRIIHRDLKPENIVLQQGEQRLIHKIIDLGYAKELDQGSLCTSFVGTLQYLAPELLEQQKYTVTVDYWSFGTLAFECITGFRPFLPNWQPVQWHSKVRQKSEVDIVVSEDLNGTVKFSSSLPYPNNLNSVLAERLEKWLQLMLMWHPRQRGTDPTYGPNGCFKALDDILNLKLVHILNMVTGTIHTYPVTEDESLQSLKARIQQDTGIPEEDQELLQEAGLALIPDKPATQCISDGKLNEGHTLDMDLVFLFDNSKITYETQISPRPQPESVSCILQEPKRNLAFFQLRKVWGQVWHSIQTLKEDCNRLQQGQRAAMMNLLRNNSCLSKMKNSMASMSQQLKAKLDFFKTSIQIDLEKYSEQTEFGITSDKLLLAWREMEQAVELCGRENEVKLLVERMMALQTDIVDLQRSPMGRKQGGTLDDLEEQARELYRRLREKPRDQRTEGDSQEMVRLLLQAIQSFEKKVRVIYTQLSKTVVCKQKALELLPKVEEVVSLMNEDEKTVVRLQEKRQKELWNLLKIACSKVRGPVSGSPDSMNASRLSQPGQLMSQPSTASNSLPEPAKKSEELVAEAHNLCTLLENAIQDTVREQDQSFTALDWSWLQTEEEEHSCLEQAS
Briefly: IKK activity assay (K-LISA IKK-β-Inhibitor Screening Kit). The format is biochemical. Conditions: DMY at 50 μM and 100 μM; FIG. 4A. Here is the method:
The direct inhibitory effect of DMY on IKK activity was examined by using K-LISA™ IKK-β-Inhibitor Screening Kit (Calbiochem). Both the glutathione-S-transferase (GST)-IκB-α substrate and His-tagged recombinant human IKK-β were incubated with or without DMY in the wells of a glutathione-coated 96-well plate. The reaction was terminated with the addition of kinase stop solution after being incubated at 30° C. for 30 minutes. Then, anti-Phospho IκB-α (Ser32/Ser36) antibody was used to determine the phosphorylated GST-IκB-α substrate, and the horse radish peroxidase (HRP)-conjugated color was developed by 3,3′,5,5′-tetramethylbenzidine (TMB) substrate. ELISA stop solution was used to stop the color development and the absorbance was measured at 450 nm the wavelength at which was directly related to the level of IKK activity.

The target in a further data set is T2, human recombinant IKK-β (Homo sapiens, UniProt O14920).
T2 sequence (O14920 1-756): T1 sequence (O14920 1-756)
Briefly: IKK-β competition assay (dot blot with biotin-DMY). To be noted: 100 μM biotin-DMY, 0, 1 and 5 folds of parental compound; FIG. 5A. It is filed as binding. Here is the method: 5 ng of human recombinant IKK-β was incubated with 100 μM of the biotin-DMY in the presence of 0, 1, and 5 folds of concentration of its parental compound. The mixture was dropped on the nitrocellulose membranes, and then detected with streptavidin horseradish peroxidase. The binding signal was then detected by using ECL.

In data set [2] the test system is p38 kinase phosphorylation. Briefly: Phosphorylation of MAPKs (Western blot): p38. The format is cell-based, human. Conditions: PMA plus ionomycin 10 minutes; FIG. 7. Here is the method: (§1) For determination of the phosphorylation of mitogen-activated protein kinases expression, the cells were stimulated by 20 ng/ml PMA plus […] ionomycin for 10 minutes. The whole-cell lysates were prepared by lysing the harvested T cells with lysis buffer (50 mM Tris-HCl, pH 7.5, 250 mM NaCl, 5 mM EDTA, 1 mM DTT, 1% Triton, 50 mM NaF, 1 mM sodium orthovanadate, 0.5 mM PMSF and 1× protease inhibitor mix, Roche).
(§2) Protein concentrations were determined by using Bio-Rad Protein assay. Equal amounts of nuclear proteins or whole-cell lysates were analyzed by 10% SDS-PAGE. After electrophoresis, the proteins were electro-transferred to the nitrocellulose membranes. After proteins were transferred, the membranes were blocked by 5% dried milk for 60 minutes and then washed three times for 5 min in each washing interval with TBS-T. The membranes were incubated with corresponding primary antibodies overnight at 4° C. and then washed with three times with TBS-T. Afterwards, the membranes were incubated again with HRP-conjugated secondary antibodies for 60 minutes. The blots were developed using the ECL.
(In general: A western blot detects proteins with antibodies after separation by electrophoresis.)

A further data set has as its system JNK phosphorylation. Briefly: Phosphorylation of MAPKs (Western blot): JNK. The format is cell-based, human. Conditions: PMA plus ionomycin 10 minutes; FIG. 7. Here is the method:
as §1, §2

Data set [3] has as its system c-Fos nuclear translocation in human T lymphocytes. Briefly: c-Fos nuclear translocation assay (Western blot). It is filed as cell-based. To be noted: pretreated 1 hour, PMA plus ionomycin 120 minutes. Here is the method: (§3) For c-Jun and c-Fos nuclear translocation assays, the human T lymphocytes (6×10^6/well) were pretreated with DMY for 1 hour, and then stimulated with 20 ng/ml PMA plus […] ionomycin for 120 minutes. After the cells were harvested and washed with PBS twice, the nuclear proteins of cells were then prepared using NucBuster™ Reagents. Afterwards, the washed cells were re-suspended using 60 μl NucBuster™ Reagent 1 per 30 μl of packed cells and processed twice by vortexing for 15 seconds, and followed by the incubation on ice for 5 minutes and second vortexing for 15 seconds, and finally centrifuged at 16000 g for 5 minutes. The supernatants containing cytoplasmic proteins were discarded; the cell pellets were re-suspended in 45 μl of NucBuster Extraction Reagent 2. The same vortexing, icing, and repeated vortexing steps were repeated once to prepare the nuclear proteins of the cells.
(§4) Protein concentrations were determined by using Bio-Rad Protein assay. Equal amounts of nuclear proteins or whole-cell lysates were analyzed by 10% SDS-PAGE. After electrophoresis, the proteins were electro-transferred to the nitrocellulose membranes. […]

Data set [4] relates to c-Jun nuclear translocation in human T lymphocytes. Briefly: c-Jun nuclear translocation assay (Western blot). It is filed as cell-based. Conditions: pretreated 1 hour, PMA plus ionomycin 120 minutes. Here is the method:
as §3, §4

Data set [5] relates to ear edema induced by dinitrofluorobenzene in male ICR mice. Briefly: Delay-type hypersensitivity test (DNFB-induced ear edema). It is filed as in vivo. Here is the method:
Male mice were sensitized through topical application of 20 μl of 0.5% (v/v) dinitrofluorobenzene (DNFB) in acetone onto the shaved abdomen on days 1 and 2. Challenge was then preformed in day 6 by applying DNFB (20 μl, 0.5%, v/v) on the left inner and outer ear surfaces of mice. DMY (at doses of 0.5, 1, 2 mg/ear) and DEX (0.025 mg/ear, Sigma-Aldrich) dissolved in acetone was topically applied (20 μl) to the ears at 2nd, 24th, 48th, and 72nd hour after the challenge. The mice were sacrificed by cervical dislocation, and then the same area of the ears was punched from each animal. Spleens and thymuses were isolated and weighted. The ear edema was calculated according to the differences between the weight of the right and left ears. The control group was treated only with DNFB.

The mark [6] stands for this setting: DTHT mice, topical treatment, FIGS. 9B and C.

As for `O=C1c2c(O)cc(O)cc2O[C@H](c2cc(O)c(O)c(O)c2)[C@H]1O` [DMY, dihydromyricetin], the “activity of IKK-β” value in data set [1] is “significantly inhibited the activity of IKK-β”. The “competition with biotin-DMY for binding to IKK-β” value at human recombinant IKK-β is recorded as “can compete with biotin-DMY”. The p38 kinase phosphorylation result in data set [2] was “suppressed”. For the same molecule, the JNK phosphorylation result in the data set on JNK phosphorylation is on record as “suppressed”. The “nuclear translocation of c-Fos” value in data set [3] is “suppress nuclear translocation”. In addition, in data set [4], the “nuclear translocation of c-Jun” value was “suppress nuclear translocation”. The body weight result in data set [5] (DTHT mice, topical treatment) was “only a small decrease”. In addition, in data set [5] (setting [6]), the spleen weight result is reported as “increase” and the thymus weight entry is on record as “increase”. In data set [5] (topical, 0.5, 1, 2 mg/ear at 2nd, 24th, 48th, 72nd hour after challenge, FIG. 9A), the ear edema entry was “significantly and dose-dependently inhibit the ear edema”.
